The values that follow come from patent US8575185B2, “Compositions, synthesis, and methods of utilizing quinazolinedione derivatives” (Reviva Pharmaceuticals, Inc., priority 2009, dated 2013).

Where a name gives a salt, the structure may show the parent alone.

Experiment [1] has as its target T1, dopamine-D2 short (D2S) receptor (Homo sapiens, UniProt P14416).
T1 construct: expressed in transfected cells; host or cells: CHO cells
Nature of the experiment: Dopamine, D2s (Human Recombinant) Binding Assay. The conditions noted are these: human recombinant in CHO cells, [3H]Spiperone. How it is done: Dopamine, D2s (Human Recombinant) Binding Assay
Receptor Source Human recombinant expressed in CHO cells
Radioligand: [^3H]Spiperone (20-60 Ci/mmol)
Control Compound Haloperidol
Incubation Conditions The reactions were carried out in 50 mM TRIS-HCl (pH 7.4) containing 120 mM NaCl, 5 mM KCl, 5 mM MgCl2, 1 mM EDTA for 60 minutes at 25 C. The reaction was terminated by rapid vacuum filtration onto glass fiber filters. Radioactivity trapped onto the filters was determined and compared to control values in order to ascertain any interactions of test compounds with the cloned dopamine-D2 short binding site (Literature Reference: Jarvis, K. R. et al. Journal of Receptor Research 1993, 13(1-4), 573-590; Gundlach, A. L. et al. Life Sciences 1984, 35, 1981-1988.)
(§1) The radioligand binding assays for dopamine-D2S, serotonin-5HT1A and serotonin-5HT2A were carried out at six different concentrations and the test concentrations were 0.5 nM, 1 nM, 10 nm, 100 nM, 300 nM and 1000 nM.

The target of experiment [2] is T2, serotonin 5-HT1A receptor (Homo sapiens, UniProt P08908).
T2 construct: expressed in transfected cells; host or cells: HEK-293 cells
T2 sequence (P08908 1-422): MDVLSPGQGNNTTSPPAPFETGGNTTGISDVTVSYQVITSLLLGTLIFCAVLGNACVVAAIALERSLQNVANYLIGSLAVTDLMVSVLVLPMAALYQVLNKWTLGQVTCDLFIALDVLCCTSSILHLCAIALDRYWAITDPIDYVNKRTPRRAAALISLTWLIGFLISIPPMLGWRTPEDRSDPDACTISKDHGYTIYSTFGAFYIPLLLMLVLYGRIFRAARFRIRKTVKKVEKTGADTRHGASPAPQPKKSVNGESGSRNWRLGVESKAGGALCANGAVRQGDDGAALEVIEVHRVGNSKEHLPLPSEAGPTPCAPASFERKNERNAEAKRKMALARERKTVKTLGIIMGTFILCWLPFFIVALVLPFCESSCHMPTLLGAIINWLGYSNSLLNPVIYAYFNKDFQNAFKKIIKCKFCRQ
The experiment can be described thus: Serotonin, 5HT1A (Human Recombinant) Binding Assay. To be noted: human recombinant in HEK-293 cells, [3H]-8-OH-DPAT. How it is done: Serotonin, 5HT1A (Human Recombinant) Binding Assay
Receptor Source Human recombinant expressed in HEK-293 cells
Radioligand: [^3H]-8-OH-DPAT (221 Ci/mmol)
Control Compound: 8-OH-DPAT
Incubation Conditions The reactions were carried out in 50 mM TRIS-HCl (pH 7.4) containing 10 mM MgSO4, 0.5 mM EDTA and 0.1% Ascorbic acid at room temperature for 1 hour. The reaction was terminated by rapid vacuum filtration onto glass fiber filters. Radioactivity trapped onto the filters was determined and compared to control values in order to ascertain any interactions of test compounds with the cloned serotonin-5HT1A binding site (Literature Reference: Hoyer, D. et al. Eur. Journal Pharmacol. 1985, 118, 13-23; Schoeffter, P. and Hoyer, D. Naunyn-Schmiedeberg's Arch. Pharmac. 1989, 340, 135-138)
as §1

Experiment [3] has as its target T3, serotonin 5-HT2A receptor (Homo sapiens, UniProt P28223).
T3 construct: Receptor Source Human Cortex; from tissue; host or cells: human cortex
The experiment can be described thus: Serotonin, 5HT2a (Human) Binding Assay. The conditions noted are these: human cortex, [3H]-Ketanserin. How it is done:
Serotonin, 5HT2a (Human) Binding Assay
Receptor Source Human Cortex
Radioligand: [^3H]-Ketanserin (60-90 Ci/mmol)
Control Compound Ketanserin
Incubation Conditions: The reactions were carried out in 50 mM TRIS-HCl (pH 7.6) at room temperature for 90 minutes. The reaction was terminated by rapid vacuum filtration onto glass fiber filters. Radioactivity trapped onto the filters was determined and compared to control values in order to ascertain any interactions of test compounds with the serotonin-5HT2A binding site (Literature Reference: Leysen, J. E. et al. Mol. Pharmacol. 1982, 21, 301-314; Martin, G. R. and Humphrey, P. P. A. Neuropharmacol. 1994, 33(3/4), 261-273.)
as §1

T3 sequence (P28223 whole entry): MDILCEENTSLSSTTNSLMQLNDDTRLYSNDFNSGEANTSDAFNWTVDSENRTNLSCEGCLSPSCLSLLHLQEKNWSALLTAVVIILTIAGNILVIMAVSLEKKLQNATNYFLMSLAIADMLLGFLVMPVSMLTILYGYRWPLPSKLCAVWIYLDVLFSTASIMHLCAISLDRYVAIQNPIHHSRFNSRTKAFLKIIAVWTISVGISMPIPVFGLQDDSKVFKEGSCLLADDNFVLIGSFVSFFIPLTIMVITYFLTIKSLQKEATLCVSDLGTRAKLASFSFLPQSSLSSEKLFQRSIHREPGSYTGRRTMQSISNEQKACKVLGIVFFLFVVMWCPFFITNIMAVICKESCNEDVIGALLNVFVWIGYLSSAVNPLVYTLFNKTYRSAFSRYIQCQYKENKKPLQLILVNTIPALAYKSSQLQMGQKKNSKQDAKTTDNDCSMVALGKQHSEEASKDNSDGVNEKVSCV
T1 sequence (P14416 1-414 isoform P14416-2): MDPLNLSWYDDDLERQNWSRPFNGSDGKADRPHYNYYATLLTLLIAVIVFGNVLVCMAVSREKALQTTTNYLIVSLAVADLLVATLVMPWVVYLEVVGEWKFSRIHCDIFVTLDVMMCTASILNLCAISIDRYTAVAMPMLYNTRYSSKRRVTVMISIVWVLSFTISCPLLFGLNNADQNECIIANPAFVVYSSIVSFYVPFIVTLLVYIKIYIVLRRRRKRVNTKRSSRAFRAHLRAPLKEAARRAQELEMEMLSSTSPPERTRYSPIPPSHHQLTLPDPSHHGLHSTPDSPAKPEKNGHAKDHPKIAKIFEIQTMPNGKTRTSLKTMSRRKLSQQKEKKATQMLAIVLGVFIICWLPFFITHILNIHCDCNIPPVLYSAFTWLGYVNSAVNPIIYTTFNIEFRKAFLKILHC

In the case of `COc1ccccc1N1CCN(CCCCOc2ccc3c(=O)[nH]c(=O)[nH]c3c2)CC1` [Compound 10a, 7-(4-(4-(2-Methoxyphenyl)piperazin-1-yl)butoxy)quinazoline-2,4(1H, 3H)-dione hydrochloride], the IC50 in experiment [1] worked out at 2.5 nM; in experiment [2] it was 1.09 nM; in experiment [3], 268 nM. In addition, the Ki stood at 0.74 nM in experiment [1], 0.66 nM in experiment [2] and 131 nM in experiment [3].
With `O=c1[nH]c(=O)c2ccc(OCCCCN3CCN(c4cccc(Cl)c4Cl)CC3)cc2[nH]1` [Compound 10b, 7-(4-(4-(2,3-Dichlorophenyl)piperazin-1-yl)butoxy)quinazoline-2,4(1H, 3H)-dione hydrochloride], the 50% inhibitory concentration (IC50) is 1.35 nM in experiment [1], 1.63 nM in experiment [2] and 38.3 nM in experiment [3]. Further, the Ki was determined as 0.43 nM in experiment [1], 0.99 nM in experiment [2] and 20.4 nM in experiment [3].
For `O=c1[nH]c2ccccc2c(=O)n1CCCCN1CCN(c2cccc(Cl)c2Cl)CC1` [Compound 17b, 3-(4-(4-(2,3-Dichlorophenyl)piperazin-1-yl)butyl)quinazoline-2,4(1H, 3H)-dione hydrochloride], the IC50 in experiment [1] turned out to be 6.35 nM; in experiment [2] it was 0.95 nM; in experiment [3], 82.6 nM. For the same molecule, the figures for the Ki in experiment [1], in experiment [2] and in experiment [3] were 1.87 nM, 0.58 nM and 40.5 nM, respectively.

In general, IC50 refers to the midpoint of a concentration-inhibition curve. A word on the Ki: it is a measure of affinity in units of concentration, obtained from inhibition or displacement.
